Where a name gives a salt, the structure may show the parent alone. Read-outs that look alike come from different tables or passages of the source.
Experiments:
[1] = tested on: male Wistar rats
Text: Animals were trained to respond according to a modification of the discrete-trial current-threshold procedure of Kornetsky and Esposito (Fed Proc 38:2473-2476, 1979), which has been described in detail previously (Markou and Koob, 1992 Physiol Behav 51:111-119). Briefly, a trial was initiated by the delivery of a non-contingent electrical stimulus. […] The current intensity delivered was adjusted for each animal and typically ranged from 50 to 200 μA. […] After a variable inter-trial interval (7.5-12.5 sec, average of 10 sec), another trial was initiated with the delivery of a non-contingent electrical stimulus. […] Responding during the inter-trial interval delayed the onset of the next trial by 12.5 sec. Current levels were varied in alternating descending and ascending series. A set of three trials was presented for each current intensity. Current intensities were altered in 5 μA steps. In each testing session, four alternating descending-ascending series were presented. […] The overall threshold of the session was defined as the mean of the thresholds for the four individual series. Each testing session was ˜30 min in duration. The latency between the onset of the non-contingent stimulus and a positive response was recorded as the response latency. The response latency for each test session was defined as the mean response latency of all trials during which a positive response occurred. After establishment of stable ICSS reward thresholds, rats were tested in the ICSS procedure once daily except for the spontaneous nicotine withdrawal experiment when rats were tested at time-points according to the experimental design.
Systemic administration experiments. These experiments investigated whether nicotine withdrawal, as measured by elevations in ICSS thresholds, could be precipitated in nicotine-treated rats by systemic administration of an agonist at mGluII receptors (LY314582), an agonist at GABAB receptors (CGP44532), or antagonists at mGlu5 (MPEP), NMDA (MK-801) or AMPA/Kainate (NBQX) glutamate receptors. For each drug tested, rats were trained in the ICSS paradigm until stable baseline responding was achieved, defined as ≦10% variation in thresholds for 3 consecutive days and requiring approximately 14 days of daily testing. […] One group was then prepared with subcutaneous osmotic mini-pumps delivering vehicle and the second group with mini-pumps delivering 9 mg/kg/day nicotine hydrogen tartrate (3.16 mg/kg/day nicotine free base). There was a minimum seven-day interval after mini-pump implantation, during which ICSS reward thresholds continued to be measured daily, before the effect of any systemically administered drug on reward thresholds was evaluated.

[2] = tested on: Wistar rats; test: Cocaine-induced lowering of ICSS thresholds; format: in vivo, rat
[3] = tested on: drug-naïve rats; conditions: previous studies (Harrison et al., 2002; Macey et al., 2001); cited from earlier work
[4] = tested on: male Wistar rats; test: Reward deficits during amphetamine withdrawal (ICSS thresholds, response latencies, body weight)
Procedure: Male Wistar rats (Charles River, Hollister, Calif.) (300-320 g at the start of the experiments) were housed in pairs in a temperature and humidity controlled environment with a 12 hr light/dark cycle. Food and water were available ad libitum. A different set of subjects was used for each experiment. All subjects were treated in accordance with the National Institutes of Health “Guide for the Care and Use of Laboratory Animals,” and the animal facilities and the experimental protocols were in accordance with the Association for the Assessment and Accreditation of Laboratory Animal Care. Most of the behavioral testing was conducted during the light phase of the subjects' light/dark cycle, unless otherwise dictated by the experimental design due to time-course assessment of behavioral parameters. Apparatus The experimental apparatus consisted of 16 Plexiglas chambers (30.5×30×17 cm) (Med Associates Inc., St. Albans, Vt.) encased in sound-attenuating boxes (San Diego Instruments, San Diego, Calif.). Each operant chamber consisted of a stainless steel grid floor and a metal wheel manipulandum located on one wall, which required a 0.2 N force to rotate it a quarter turn. Gold-contact swivel commutators and bipolar leads connected the animals in the stimulation circuit (Plastics One, Roanoke, Va.). Brain stimulation was administered by constant current stimulators (Stimtek 1200, San Diego Instruments, San Diego, Calif.). Surgical Procedure The rats were prepared with 11 mm stainless steel bipolar electrodes (Plastics One; diameter=0.25 mm) in the posterior lateral hypothalamus (AP −0.5 mm from bregma; L±1.7 mm; DV −8.3 mm from dura, with the incisor bar set at 5 mm above the interaural line; Pellegrino et al. 1979 under halothane anaesthesia (1-1.5% halothane/oxygen mixture). Subjects were allowed to recover for at least seven days before any behavioral testing. Half of the electrodes were positioned on the right hemisphere and the other half on the left hemisphere to counterbalance possible brain asymmetries. […] The subjects were initially trained to turn the wheel manipulandum on a fixed ratio 1 schedule of reinforcement. […] The current intensity delivered was adjusted for each animal and typically ranged from 100 to 200 μA. After successful familiarization with this procedure (2 sessions of 100 reinforcers in less than 20 minutes), the rats were gradually trained on a discrete-trial, current-threshold procedure. At the start of each trial rats received a non-contingent electrical stimulus. During the following 7.5 sec, the limited hold, if the subjects responded by turning the wheel manipulandum a quarter turn (positive response) they received a second, contingent stimulus identical to the previous non-contingent stimulus. During a 2 sec period immediately following a positive response, further responses were recorded as extra responses but had no consequence. If no response occurred during the 7.5 sec limited hold period a negative response was recorded. […] Stimulation intensities were varied according to the classical psychophysical method of limits. The subjects received four alternating series of ascending and descending current intensities starting with a descending series. Within each series the stimulus intensity was altered by 5 μA steps between each set of trials (three trials per set). After training in the above procedure, rats were tested until stable baseline thresholds had been achieved L+10% over a 5-day period). […] During the ascending series, the reverse situation defined the threshold. Thus, during each session, four current-thresholds were recorded and the mean of these values was taken as the current-threshold for each subject for each test session. Response Latency: The latency between the onset of the non-contingent stimulus and a positive response was recorded as the response latency. The response latency for each test session was defined as the mean response latency of all trials during which a positive response occurred. […]

[5] = MK-801 0.01 mg/kg i.p., Nicotine-treated rats
[6] = MK-801 0.01 mg/kg i.p., Vehicle-treated rats
[7] = MK-801 0.03 mg/kg i.p., Nicotine-treated rats
[8] = MK-801 0.03 mg/kg i.p., Vehicle-treated rats
[9] = MK-801 0.1 mg/kg i.p., Nicotine-treated rats
[10] = MK-801 0.1 mg/kg i.p., Vehicle-treated rats
[11] = MK-801 0.15 mg/kg i.p., Nicotine-treated rats
[12] = MK-801 0.15 mg/kg i.p., Vehicle-treated rats
[13] = MK-801 0.175 mg/kg i.p., Nicotine-treated rats
[14] = MK-801 0.175 mg/kg i.p., Vehicle-treated rats
[15] = MK-801 0.2 mg/kg i.p., Nicotine-treated rats
[16] = MK-801 0.2 mg/kg i.p., Vehicle-treated rats
[17] = CGP44532 0.065 mg/kg i.p., Nicotine-treated rats
[18] = CGP44532 0.065 mg/kg i.p., Vehicle-treated rats
[19] = CGP44532 0.125 mg/kg i.p., Nicotine-treated rats
[20] = CGP44532 0.125 mg/kg i.p., Vehicle-treated rats
[21] = CGP44532 0.25 mg/kg i.p., Nicotine-treated rats
[22] = CGP44532 0.25 mg/kg i.p., Vehicle-treated rats
[23] = CGP44532 0.5 mg/kg i.p., Nicotine-treated rats
[24] = CGP44532 0.5 mg/kg i.p., Vehicle-treated rats
[25] = chronic amphetamine administration

C[C@]12N[C@H](Cc3ccccc31)c1ccccc12 [MK-801, (5R,10S)-(+)-5-Methyl-10,11-dihydro-5H-dibenzo(a,d)cyclohepten-5,10-imine hydrogen maleate]
ICSS Thresholds [1, 5]: 98.20 ± 6.1 percentage of baseline | ICSS response Latencies [1, 5]: 95.41 ± 2.3 percentage of baseline | ICSS Thresholds [1, 6]: 95.99 ± 3.3 percentage of baseline | ICSS response Latencies [1, 6]: 100.00 ± 2.5 percentage of baseline | ICSS Thresholds [1, 7]: 93.09 ± 3.9 percentage of baseline | ICSS response Latencies [1, 7]: 94.64 ± 3.6 percentage of baseline | ICSS Thresholds [1, 8]: 92.54 ± 2.6 percentage of baseline | ICSS response Latencies [1, 8]: 103.14 ± 2.1 percentage of baseline | ICSS Thresholds [1, 9]: 89.42 ± 3.6 percentage of baseline | ICSS response Latencies [1, 9]: 106.14 ± 4.4 percentage of baseline | ICSS Thresholds [1, 10]: 88.48 ± 5.6 percentage of baseline | ICSS response Latencies [1, 10]: 98.97 ± 3.9 percentage of baseline | ICSS Thresholds [1, 11]: 76.24 ± 4.7 percentage of baseline | ICSS response Latencies [1, 11]: 93.65 ± 3.6 percentage of baseline | ICSS Thresholds [1, 12]: 87.14 ± 4.6 percentage of baseline | ICSS response Latencies [1, 12]: 101.60 ± 2.0 percentage of baseline | ICSS Thresholds [1, 13]: 82.26 ± 3.7 percentage of baseline | ICSS response Latencies [1, 13]: 93.56 ± 4.2 percentage of baseline | ICSS Thresholds [1, 14]: 93.64 ± 3.4 percentage of baseline | ICSS response Latencies [1, 14]: 119.22 ± 11.9 percentage of baseline | ICSS Thresholds [1, 15]: 84.29 ± 3.0 percentage of baseline | ICSS response Latencies [1, 15]: 105.14 ± 1.9 percentage of baseline | ICSS Thresholds [1, 16]: 82.47 ± 4.3 percentage of baseline | ICSS response Latencies [1, 16]: 119.21 ± 9.4 percentage of baseline | ICSS reward thresholds ([1]; MK-801 0.01-0.2 mg/kg): lowered reward thresholds in nicotine-treated and control rats | withdrawal-like elevations in reward thresholds ([1]; MK-801, nicotine-treated rats): did not precipitate withdrawal-like elevations in reward thresholds in nicotine-treated rats at any dose tested | ICSS response Latencies ([1]; MK-801, p<0.05, particularly in control rats): did significantly increase response latencies | Doses causing disruption in performance in the ICSS paradigm ([1]; both groups, rats no longer responded for self-stimulation): ≥ 0.2 mg/kg

COC(=O)[C@H]1[C@@H](OC(=O)c2ccccc2)C[C@@H]2CC[C@H]1N2C.Cl [cocaine, Cocaine hydrochloride]
ICSS response Latencies ([2]; cocaine 10 mg/kg): significantly decreased ICSS response latencies | ICSS Thresholds ([2]; cocaine 10 mg/kg i.p.): significantly lowered ICSS thresholds | ICSS thresholds, time course ([2]; cocaine 10 mg/kg, at 10 and 40 min after cocaine injection): significantly lowered in cocaine-treated rats, pretreated with vehicle

CP(=O)(O)C[C@@H](O)CN [CGP44532, 3-Amino-2-(S)-hydroxypropyl-methyl-phosphinic acid]
ICSS Thresholds [1, 17]: 96.37 ± 3.2 percentage of baseline | ICSS response Latencies [1, 17]: 106.02 ± 8.1 percentage of baseline | ICSS Thresholds [1, 18]: 96.28 ± 3.1 percentage of baseline | ICSS response Latencies [1, 18]: 97.31 ± 3.8 percentage of baseline | ICSS Thresholds [1, 19]: 103.88 ± 7.2 percentage of baseline | ICSS response Latencies [1, 19]: 98.15 ± 5.3 percentage of baseline | ICSS Thresholds [1, 20]: 106.76 ± 3.2 percentage of baseline | ICSS response Latencies [1, 20]: 102.34 ± 2.8 percentage of baseline | ICSS Thresholds [1, 21]: 109.98 ± 5.4 percentage of baseline | ICSS response Latencies [1, 21]: 99.05 ± 3.1 percentage of baseline | ICSS Thresholds [1, 22]: 109.14 ± 5.1 percentage of baseline | ICSS response Latencies [1, 22]: 105.03 ± 3.1 percentage of baseline | ICSS Thresholds [1, 23]: 146.83 ± 14.3 percentage of baseline | ICSS response Latencies [1, 23]: 98.11 ± 5.4 percentage of baseline | ICSS Thresholds [1, 24]: 148.43 ± 16.6 percentage of baseline | ICSS response Latencies [1, 24]: 106.13 ± 6.5 percentage of baseline | ICSS reward thresholds ([1]; CGP44532 0.5 mg/kg, p<0.001): elevated reward thresholds in nicotine-treated and control rats | ICSS reward thresholds ([1]; CGP44532 0.065-0.25 mg/kg, nicotine treated rats): did not precipitate reward threshold elevations in nicotine treated rats at the lowest doses tested | ICSS response Latencies ([1]; CGP44532 0.065-0.5 mg/kg): had no effect on response latencies at any dose tested | dose that elevated ICSS thresholds in drug-naïve rats [3]: ≥ 0.25 mg/kg

C[C@H](N)Cc1ccccc1 [amphetamine, d-Amphetamine sulfate]
reward thresholds during amphetamine withdrawal ([4]; amphetamine-exposed rats treated with vehicle): exhibited elevated thresholds at withdrawal hours 12, 36, 42, 60 and 84 | body weight [4, 25]: significantly reduced the body weight of animals | response latencies [4, 25]: did not significantly differ from those of the saline-exposed rats at any stage during chronic drug treatment | reward thresholds ([4]; chronic amphetamine administration, four day treatment, 1-5 mg/kg three times a day): significantly elevated thresholds

NS(=O)(=O)c1cccc2c1c([N+](=O)[O-])cc1[nH]c(=O)c(=O)[nH]c12.[Na].[Na] [NBQX, 2,3-dioxo-6-nitro-1,2,3,4-tetrahydrobenzo(f)quinoxaline-7-sulphonamide disodium]
ICSS response Latencies ([1]; NBQX 0.01-1 mg/kg): had no effect on response latencies in nicotine-treated or control rats at any dose tested | ICSS reward thresholds ([1]; NBQX 0.01-1 mg/kg): significantly altered ICSS reward thresholds in nicotine-treated but not control rats | ICSS reward thresholds ([1]; NBQX 0.025-0.1 mg/kg, nicotine-treated rats): elevated reward thresholds in nicotine-treated rats | ICSS reward thresholds ([1]; NBQX 0.5-1 mg/kg, nicotine-treated rats): did not significantly increase thresholds compared to vehicle treatment
